Measured values from US11331327B2, “Antibacterial use of halogenated salicylanilides” (UNION therapeutics A/S, priority 2014, dated 2022).
“And” between values parts separate entries of the source, which are not always exact repeats. Equal values may be shown once. Read-outs that look alike come from different tables or passages of the source. Marks after values point to notes of the source that are not given here.

Key:
[1] = tested on: MRSA 01, MRSA 15, MRSA 16; test: Mutational frequency evaluation, Example 1; type: cell-based, Staphylococcus aureus; conditions: for Resistance mutation rate at MIC × 1: tested against one strain: MRSA 01; for mutational frequency at MIC×1: text summary of Table 4
Procedure: Adequate dilutions were plated on plates without the compound.
Viable cell growth was enumerated after 48 hours of incubation at 37° C.
Ten replicates were carried out for each strain and fusidic acid, mupirocin and retapamulin were used as controls for the MRSA 01 strain.

S. pyogenes strains = test: Minimum Inhibitory Concentration (MIC) assay, Example 1, S. pyogenes strains; type: cell-based, Streptococcus pyogenes; conditions: Streptococcus pyogenes, read-out: Mic100 S. pyogenes
Procedure: (§1) Strains were conserved in Luria Bertani (LB) Broth (S. aureus) or Brain Heart Infusion (BHI) (S. pyogenes) supplemented with glycerol 15% (v/v) at −80° C., and reactivated by isolation on LB (S. aureus) or BHI (S. pyogenes) agar plates. Strains were cultivated in Mueller Hinton (MH) Broth-cation adjusted (S. aureus) supplemented with lysed horse blood 2.5% (v/v) (S. pyogenes). All strains were cultivated at 37° C., aerobically for S. aureus strains.
(§2) Bacterial cultures were stopped in their exponential growth phase and plates were inoculated with the approximate concentration of 10^3 cells per well. Plates were incubated at 37° C. for 18 hours (S. aureus) or 24 hours (S. pyogenes). Optical density at a wavelength of 600 nm was measured at the end of the incubation time. […] Experiments were performed at least as triplicate biological replicates with all strains.

S. aureus strains = test: Minimum Inhibitory Concentration (MIC) assay, Example 1, S. aureus strains; type: cell-based; conditions: Staphylococcus aureus, read-out: Mic100 S. aureus
Procedure: as §1, §2

[2] = cited from earlier work; for LD50 rats p.o: Table 3
[3] = in vivo; cited from earlier work
[4] = cited from earlier work
[5] = tested against one strain: S. pyogenes 01

With `Cc1cc(C(C#N)c2ccc(Cl)cc2)c(Cl)cc1NC(=O)c1cc(I)cc(I)c1O` (stereo not drawn) [Closantel, N-[5-chloro-4-[(4-chlorophenyl)cyanomethyl]-2-methylphenyl]-2-hydroxy-3,5-diiodobenzamide] the “Resistance mutation rate at MIC × 1” value [1] was “= 2 × 10^−8*”, the “mutational frequency at MIC×1” value [1] was 2×10^−8 and the MIC (S. pyogenes strains; [5]) was 12.8 µg/mL and 19 µM. The MIC (S. aureus strains; S. aureus strains) was ≤ 1.7 µg/mL and ≤ 2.5 µM, the LD50 rats p.o [2] was 300 mg/kg and the LD50 ([2]; rats, p.o.) was 262 to 342 mg/kg.
For `O=C(Nc1cc(Cl)cc(Cl)c1O)c1c(O)c(Cl)cc(Cl)c1Cl` [Oxyclozanide, 3,3′,5,5′,6-pentachloro-2′-hydroxysalicylanilide], the “mutational frequency at MIC×1” value [1] is given as 1×10^−7, the MIC (S. pyogenes strains; [5]) is given as 6.4 µg/mL and 15.9 µM and the “safety margin after oral administration” value [3] is given as “Low safety margin”. For the same compound, the MIC (S. aureus strains; tested against one strain: MRSA 01) was 1.6 µg/mL and 4 µM, the LD50 rats p.o [2] was 980 to 3500 mg/kg and the LD50 ([2]; rats, p.o.) was 980 to 3519 mg/kg.
In the case of `O=C(Nc1ccc(Oc2ccc(Cl)cc2)c(Cl)c1)c1cc(I)cc(I)c1O` [Rafoxanide, 3′-chloro-4′-(p-chlorophenoxy)-3,5-diiodosalicylanilide], the “Resistance mutation rate at MIC × 1” value [1] is listed as “= 5 × 10^−9*”, the “mutational frequency at MIC×1” value [1] is listed as 5×10^−9 and the LD50 mice p.o ([4]; Table 3) is listed as 270 mg/kg. For the same compound, the LD50 ([4]; mice, p.o.) was 232 to 300 mg/kg, the MIC (S. pyogenes strains) was 6.4 µg/mL and 10 µM and the MIC (S. aureus strains; MRSA) was 0.8 µg/mL and 1.25 µM. The LD50 rats p.o [2] was 1500 mg/kg, the LD50 median ([2]; rats, p.o., median of studies) was greater than 1490 mg/kg and the LD50 ([2]; rats, p.o.) was 980->2000 mg/kg.
